According to US20150283159A1, “ANTICANCER AGENT, AND COMBINATION USE ANTICANCER AGENT” (Microbial Chemistry Research Foundation, priority 2012, published 2015):
In brackets after ≈: the same amount, converted by molar mass.

What was measured:
[1] = test system: Human lung cancer NCI-H460 cells; assay: In vitro cell proliferation suppressive activity (MTT method); format: cell-based; conditions: 3 days culture; for IC50: Homo sapiens, 72 h, read-out: IC50 (concentration at which 50% of the cell proliferation was suppressed), NCI-H460 cells
Protocol: (§1) Proliferation suppressive activities of ellagitannin against various kinds of cancer cell lines were measured in the following manner.
(§2) Each of the following cancer cell lines was placed in a 96-well plate at 5×10^3 cell/100 μL per well using a DMEM medium (product of NISSUI PHARMACEUTICAL CO., LTD.) containing FBS (product of Sigma-Aldrich Co.) in an amount of 10 liquid amount %, and was cultured for 24 hours at 37° C. in an atmosphere of 5% CO2, whereby the cells were allowed to adhere to the plate completely.
(§3) Each of the following ellagitannins was added thereto so as to have final concentrations of 100 μg/mL, 50 μg/mL, 25 μg/mL, 12.5 μg/mL, 6.25 μg/mL, 3.13 μg/mL, 1.56 μg/mL, and 0.78 μg/mL, followed by culturing for 3 days at 37° C. in an atomosphere of 5% CO2.
(§4) In addition, as comparative controls, the 96-well plates to which the cancer cells had been allowed to adhere were cultured for 3 days at 37° C. in an atomosphere of 5% CO2 without addition of ellagitannin.
(§5) After the culturing for 3 days, cell proliferation was measured using the MTT method. The MTT method was performed as follows. Specifically, 10 μL of an MTT solution (a PBS solution containing MTT (3-(4,5-dimethylthiazol-2-yl)-2,5-diphenyltetrazolium bromide) at a concentration of 5 mg/mL) was added to each well and cultured for 4 hours. The formed formazan products were dissolved by adding 100 μL of a 20% SDS solution to each well, and measured for absorbance at 570 nm using LABSYSTEMS MULTISCAN MS (product of DS Pharma Biomedical Co., Ltd.).
(§6) The absorbance of the system involving the addition of the ellagitannin was indicated as “A” and the absorbance of the system of the comparative controls was indicated as “B”, and cell proliferation inhibitory rate (%) was calculated from the following formula (1).
(§7) Cell proliferation inhibitory rate(%)={(B−A)/B}×100 Formula (1)
(§8) Next, the cell proliferation inhibitory rate was used to determine a concentration at which 50% of the cell proliferation was suppressed (IC50 value).

[2] = test system: Human osteosarcoma SJSA-1 cells; assay: as above; format: cell-based; conditions: 3 days culture; for IC50: Homo sapiens, 72 h, read-out: IC50 (concentration at which 50% of the cell proliferation was suppressed), SJSA-1 cells
Protocol: as §1, §2, §3, §4, §5, §6, §7, §8

[3] = test system: human osteosarcoma SJSA-1 cells; assay: Antitumor activity-2 in cancer cell-transplanted mice (Test Example 2-2); format: in vivo, mouse; conditions: nude mice transplanted with SJSA-1 cells; 12.5, 6.25 or 3.13 mg/kg, tail vein, twice a week; FIG. 3
Source text: Eugeniin (product of […] Science Co., Ltd.) was used as the ellagitannin and was studied for antitumor activity in the following manner.

[4] = test system: human lung cancer NCI-H460 cells; assay: Antitumor activity-1 in cancer cell-transplanted mice (Test Example 2-1); format: in vivo, mouse; conditions: nude mice transplanted with NCI-H460 cells; 12.5 mg/kg, tail vein, twice a week from one week after transplantation; FIG. 2
Protocol: (§9) The antitumor effect of the geraniin was evaluated by observing the proliferation state of the tumor after the transplantation of the cells. Specifically, a longer diameter and a shorter diameter of each tumor were meatured with a caliper, and a tumor volume was measured from the following formula (2). Its average and standard deviation were obtained to determine the effect in the geraniin-administration groups in comparison to the comparative control groups.
(§10) Tumore volume=longer diameter×(shorter diameter)^2÷2 Formula (2)

[5] = test system: human osteosarcoma SJSA-1 cells; assay: as above; format: in vivo, mouse; conditions: nude mice transplanted with SJSA-1 cells; 12.5 mg/kg, tail vein, twice a week from one week after transplantation; FIG. 1
Protocol: as §9, §10

Compound | IC50 [1] [µg/mL] | IC50 [2] [µg/mL] | IC50 (concentration at which 50% of the cell proliferation was suppressed), NCI-H460 cells [1] [µg/mL] | IC50 (concentration at which 50% of the cell proliferation was suppressed), SJSA-1 cells [2] [µg/mL] | tumor volume compared with the comparative control group (Saline) [3] | tumor volume compared with the comparative control group (Saline) [4] | tumor volume compared with the comparative control group (Saline) [5]
O=C(O[C@@H]1O[C@@H]2COC(=O)c3cc(O)c(O)c(O)c3-c3c(cc(O)c(O)c3O)C(=O)O[C@H]2[C@H](OC(=O)c2cc(O)c(O)c(O)c2)[C@H]1OC(=O)c1cc(O)c(O)c(O)c1)c1cc(O)c(O)c(O)c1 [Eugeniin, eugeniin] | 5.6 (≈ 5.97 µM) | 18 (≈ 19.2 µM) |  |  | significantly smaller |  | 
O=C1O[C@H]2[C@@H]3OC(=O)c4cc(O)c(O)c(O)c4-c4c(cc(O)c(O)c4O)C(=O)OC[C@H]2O[C@@H](OC(=O)c2cc(O)c(O)c(O)c2)[C@@H]3OC(=O)c2cc(O)c(O)c3c2[C@@H]2C1=CC(=O)[C@](O)(O3)C2(O)O [Geraniin, geraniin] | 40 (≈ 42 µM) | 100 (≈ 105 µM) |  |  |  | significantly smaller | significantly smaller
O=C(OC1OC2COC(=O)c3cc(O)c(O)c(O)c3-c3c(cc(O)c(O)c3O)C(=O)OC2C(OC(=O)c2cc(O)c(O)c(O)c2)C1O)c1cc(O)c(O)c(O)c1 (stereo not drawn) [1,3-di-O-galloyl-4,6-O-hexahydroxydiphenoyl glucose] | 11 (≈ 14 µM) | 41 (≈ 52.1 µM) |  |  |  |  | 

More lines, main results first:

IC50 [1] [µg/mL] | IC50 [2] [µg/mL] | IC50 (concentration at which 50% of the cell proliferation was suppressed), NCI-H460 cells [1] [µg/mL] | IC50 (concentration at which 50% of the cell proliferation was suppressed), SJSA-1 cells [2] [µg/mL] | Compound | tumor volume compared with the comparative control group (Saline) [3] | tumor volume compared with the comparative control group (Saline) [4] | tumor volume compared with the comparative control group (Saline) [5]
32 (≈ 40.7 µM) | 46 (≈ 58.5 µM) |  |  | O=C(OC1C(O)OC2COC(=O)c3cc(O)c(O)c(O)c3-c3c(cc(O)c(O)c3O)C(=O)OC2C1OC(=O)c1cc(O)c(O)c(O)c1)c1cc(O)c(O)c(O)c1 (stereo not drawn) [Tellimagrandin I, tellimagrandin I] |  |  | 
 |  | 35 | 61 | casuarictin |  |  | 
33 (≈ 52 µM) | ≥ 110 |  |  | O=C(OC1OC2COC(=O)c3cc(O)c(O)c(O)c3-c3c(cc(O)c(O)c3O)C(=O)OC2C(O)C1O)c1cc(O)c(O)c(O)c1 (stereo not drawn) [Strictinin, strictinin] |  |  | 
